Results taken from patent publication US6756342B1, “Substituted thienocycloalk(en) ylamino -1,3,5-triazine” (priority 1999, dated 2004).
Where a name gives a salt, the structure may show the parent alone.

Assays:
[1] = logP determination by reversed-phase HPLC (EEC Directive 79/831 Annex V.A8); type: physicochemical; conditions: reversed-phase C18 HPLC column; a) acidic range: 0.1% aqueous phosphoric acid/acetonitrile gradient, C18, 43° C.
Procedure: The logP values given in Example 1 and in Table 1 were determined in accordance with EEC Directive 79/831 Annex V.A^8 by HPLC (High Performance Liquid Chromatography) using a reversed-phase column (C 18). Temperature: 43° C.
(a) Mobile phases for the determination in the acidic range: 0.1% aqueous phosphoric acid, acetonitrile; linear gradient from 10% acetonitrile to 90% acetonitrile—the corresponding data are labelled in Table 1 with ^a).
(b) Mobile phases for the determination in the neutral range: 0.01 molar aqueous phosphate buffer solution, acetonitrile; linear gradient from 10% acetonitrile to 90% acetonitrile—corresponding data are labelled in Table 1 with ^b).
Calibration was carried out using unbranched alkan-2-ones (with from 3 to 16 carbon atoms) whose logP values are known (determination of the logP values by the retention times using linear interpolation between two successive alkanones).

Abutilon = test: Pre-emergence test/greenhouse; type: in vivo; conditions: 500 g of ai./ha, rated after three weeks vs untreated control
Procedure: (§1) Solvent: 5 parts by weight of acetone
(§2) Emulsifier: 1 part by weight of alkylaryl polyglycol ether
(§3) To produce a suitable preparation of active compound, 1 part by weight of active compound is mixed with the stated amount of solvent, the stated amount of emulsifier is added and the concentrate is diluted with water to the desired concentration.
(§4) Seeds of the test plants are sown in normal soil. After about 24 hours, the soil is sprayed with the preparation of active compound such that the particular amount of active compound desired is applied per unit area. The concentration of the spray liquor is chosen so that the particular amount of active compound desired is applied in 1000 litre of water per hectare.
(§5) After three weeks, the degree of damage to the plants is rated in % damage in comparison to the development of the untreated control.
(§6) 0%=no effect (like untreated control)

Alopecurus [2] = test: Pre-emergence test/greenhouse; type: in vivo; conditions: 500 g of ai./ha, rated after three weeks vs untreated control
Procedure: as §1, §2, §3, §4, §5, §6

Amaranthus [3] = test: Pre-emergence test/greenhouse; type: in vivo; conditions: 500 g of ai./ha, rated after three weeks vs untreated control
Procedure: as §1, §2, §3, §4, §5, §6

Galium = test: Pre-emergence test/greenhouse; type: in vivo; conditions: 500 g of ai./ha, rated after three weeks vs untreated control
Procedure: as §1, §2, §3, §4, §5, §6

Setaria [4] = test: Pre-emergence test/greenhouse; type: in vivo; conditions: 500 g of ai./ha, rated after three weeks vs untreated control
Procedure: as §1, §2, §3, §4, §5, §6

Alopecurus [5] = test: Post-emergence test/greenhouse; type: in vivo; conditions: 500 g of ai./ha, rated after three weeks vs untreated control
Procedure: as §1, §2, §3
(§7) Test plants which have a height of 5-15 cm are sprayed with the preparation of active compound such that the particular amounts of active compound desired are applied per unit area. The concentration of the spray liquor is chosen so that the particular amounts of active compound desired are applied in 1000 l of water/ha.
as §5, §6

Amaranthus [6] = test: Post-emergence test/greenhouse; type: in vivo; conditions: 500 g of ai./ha, rated after three weeks vs untreated control
Procedure: as §1, §2, §3, §7, §5, §6

Setaria [7] = test: Post-emergence test/greenhouse; type: in vivo; conditions: 500 g of ai./ha, rated after three weeks vs untreated control
Procedure: as §1, §2, §3, §7, §5, §6

Sinapis = test: Post-emergence test/greenhouse; type: in vivo; conditions: 500 g of ai./ha, rated after three weeks vs untreated control
Procedure: as §1, §2, §3, §7, §5, §6

Xanthium = test: Post-emergence test/greenhouse; type: in vivo; conditions: 500 g of ai./ha, rated after three weeks vs untreated control
Procedure: as §1, §2, §3, §7, §5, §6

weeds [8] = test: Pre-emergence test, overall statement; type: in vivo
Procedure: as §1, §2, §3, §4, §5, §6

weeds [9] = test: Post-emergence test, overall statement; type: in vivo
Procedure: as §1, §2, §3, §7, §5, §6

Row | chromatographic logP [1] | SMILES | % damage Abutilon (Abutilon) | % damage Alopecurus (Alopecurus [2]) | % damage Amaranthus (Amaranthus [3]) | % damage Galium (Galium) | % damage Setaria (Setaria [4]) | % damage Alopecurus (Alopecurus [5]) | % damage Amaranthus (Amaranthus [6]) | % damage Setaria (Setaria [7]) | % damage Sinapis (Sinapis) | % damage Xanthium (Xanthium) | activity against weeds (weeds [8]) | activity against weeds (weeds [9])
1 | 4.26 | CC(F)c1nc(N)nc(NC2CCCc3sccc32)n1 (centres unmarked) [Example 1, 2-amino-4-(1-fluoro-ethyl)-6-(4,5,6,7-tetra-hydrobenzo[b]thiophen-4-yl-amino)-1,3,5-triazine] | 95% | 100% | 100% | 90% | 100% | 95% | 100% | 100% | 100% | 100% | strong activity | strong activity
2 | 1.12 | [H]/N=C(/N)N/C(=N/[H])NC1CCCc2sc(C)cc21 (centres unmarked) [Example II-1, 2-methyl-4,5,6,7-tetrahydrobenzo[b]thiophen-4-yl-biguanide hydrochloride] | – | – | – | – | – | – | – | – | – | – | – | –
